Some results are limits rather than exact numbers.

This is an account of results in patent EP0037224A1, “Rare earth metal carboxylates, their use as antimicrobial agents, and medicinal, cosmetic and cleansing compositions containing them” (THE PROCTER & GAMBLE COMPANY, priority 1980, dated 1981).

One assay concerns E. coli. The assay can be described thus: Minimum Bactericidal Concentration test. The class given is cell-based. Particulars: 10-minute contact with the test agent at 37°C; at least a 3 log unit reduction in viable cell count.
For another assay, the system named is S. aureus. The assay can be described thus: Minimum Bactericidal Concentration test. Type of assay: cell-based. As to conditions: 10-minute contact with the test agent at 37°C; at least a 3 log unit reduction in viable cell count.
The next assay has as its system Staphylococcus. Particulars: cited from earlier work.
For a further assay, the system named is molds. Particulars: cited from earlier work.

Regarding `O.O.O.O.O.O.O.O.O=S(=O)([O-])[O-].O=S(=O)([O-])[O-].O=S(=O)([O-])[O-].[La+3].[La+3]` [La2(SO4)3.8H2O], the “Minimum Bactericidal Concentration E. coli” value in the assay with E. coli is on record as above 7100 ppm. Moreover, the “Minimum Bactericidal Concentration S. aureus” value in the assay on S. aureus is reported as above 7100 ppm.

Consider `O.O.O.O.O.O.O=[N+]([O-])[O-].O=[N+]([O-])[O-].O=[N+]([O-])[O-].[La+3]` [La(NO3)3.6H2O], for which, in the assay on E. coli, the “Minimum Bactericidal Concentration E. coli” value is given as above 4300 ppm. The “Minimum Bactericidal Concentration S. aureus” value in the assay on S. aureus was above 4300 ppm.

Consider `O.O.O.O.O.O.[Cl-].[Cl-].[Cl-].[La+3]` [LaCl3.6H2O], for which the “Minimum Bactericidal Concentration E. coli” value in the assay with E. coli was above 3500 ppm. Besides, in the assay with S. aureus, the “Minimum Bactericidal Concentration S. aureus” value was above 3500 ppm.

On to `O=[N+]([O-])[O-].O=[N+]([O-])[O-].O=[N+]([O-])[O-].[Ce+3]` [cerium nitrate], for which, in the assay with Staphylococcus, the “concentration that inhibits Staphylococcus” value is 1000 ppm. Besides, the “concentration that inhibits molds” value with molds is 1000 ppm.
